From US20230076977A1, “UTROPHIN UPREGULATION COMPOUNDS FOR DUCHENNE MUSCULAR DYSTROPHY THERAPY” (THE TRUSTEES OF THE UNIVERSITY OF PENNSYLVANIA, priority 2020, published 2023)
Where two headings read alike, the source gives them in different places.

Legend:
[1] = tested on: CMV-driven luciferase gene; assay: Counterscreening assay: C2C12 line stably expressing only the CMV-driven luciferase gene; assay type: cell-based; details: Mus musculus, C2C12, read-out: counterscreening EC50
Method: (§1) The construct for the HTS assay was generated by cloning the 5′- and 3′-UTRs of human utrophin into pGL4:50-hygro (Promega, Madison, Wis.) at the 5′ and 3′ of the luciferase coding sequence and has been described previously by Moorwood. […] For the counterscreening assay, the pGL4:50-hygro plasmid was used alone. Low passage C2C12 cells obtained from ATCC were transfected with either constructs, stably selected with 500 μg/mL hygromycin and subcloned using two rounds of serial dilutions to isolate single cell-derived colonies in a 96 wells plate format. […] The selected clones were cultured in presence of 100 μg/mL hygromycin B and were transferred to the HTS Facility at the University of Pennsylvania for implementation into a 384-wells format suitable for HTS.
(§2) The construct for generating the screening C2C12 cell line carrying the 5′ and 3′UTR of the human utrophin gene is described by Moorwood. […] Some compounds could increase light emission independently from the 5′ and 3′UTR regions, i.e., by activating the CMV promoter or increasing overall mRNA synthesis. Therefore, in order to distinguish such compounds, a counterscreening cell line stably expressing only the CMV-driven luciferase gene was generated (FIG. 1A). To determine optimal conditions for the implementation in a 384-wells high-throughput format, evaluated were DMSO tolerance, optimal cell density and incubation time (FIG. 5A-5C).
(§3) A first criterion for evaluating the performance of the selected hits was whether their activity was dose-dependent. After performing a dose-response analysis (5 nM to 10 μM) of each hit in the screening cell line, a clustering approach was applied (complete linkage with Euclidean distance measurement) to highlight similarities between compounds profiles. […] By modeling each dose-response trace with a 4-parameter logistic model applied to the Z— score values (FIG. 2B), the EC50 of each molecule was calculated.
(§4) Cells were allowed to attach overnight at 37° C., 5% CO2 in a humidified chamber. […] Compounds were added to a final concentration of 1 μM and 100 nM in 0.2% DMSO. Columns 1 and 23 were treated with 0.2% DMSO (negative control). Columns 2 and 24 were treated with 100 nM Panobinostat (positive control). Cells were incubated for 24 hours at 37° C., 5% CO2. […] Luminescence was measured on an EnVisionXcite Multilabel Plate Reader (PerkinElmer), using ultrasensitive luminescence measurement technology.

[2] = tested on: 5′- and 3′-UTRs of human utrophin; assay: Screening assay: C2C12 stable reporter line, CMV-driven luciferase flanked by utrophin 5′ and 3′ UTRs; assay type: cell-based; details: for EC50: C2C12
Method: as §1, §2, §3, §4

[3] = tested on: utrophin protein in C2C12 cells; assay: Utrophin western blot in C2C12 cells (endogenous protein expression); assay type: cell-based; details: 24 hours
Method: The 10 highest scoring hits were selected from this subset for performing in vitro validation. C2C12 cells were treated with 1 μM concentrations of the selected hits for 24 hours, followed by western blot evaluation of utrophin levels as an orthogonal assay for endogenous protein expression. […] Panobinostat, an FDA-approved non-selective HDAC inhibitor for cancer treatment, increased utrophin levels by 1.9-fold. […] AR-42 (S2244), another HDAC inhibitor with proven preclinical efficacy in contrasting cancer-induced cachexia, increased utrophin by 2.3-fold and had the second highest H2LPS. Consistent with the calculated HPS, the highest scoring hit, TSA (S1045), had also the highest magnitude of protein upregulation (3.9-fold) followed by PCI-24781 (S1090; 3.7-fold). Importantly, high H2LPS was generally correlated with confirmation in WB assays (FIG. 2E).
(§5) Total RNA was extracted from TA muscle samples with RNAeasy kit (Qiagen, USA) and reverse transcribed with random hexamers. qPCR was performed using Taqman probes for Utrophin (Assay ID Mm01168846_ml) and β-actin. Muscle tissue samples were lysed with TNEC buffer (50 mM Tris-HCl, pH 8.0; 150 mMNaCl; 1% NP40; 2 mM EDTA) buffer containing complete protease inhibitor cocktail (Roche, Basel, Switzerland). C2C12 cells were treated for 24 h with 1 μM concentrations of compounds from a fresh batch (3 wells for each compound), and cell samples were lysed with RIPA buffer with protease inhibitor cocktail. The experiment was repeated three independent times. 50-75 μg of total proteins from muscle tissues, or 4 μg of cell protein extracts, were resolved on a 3-8% Tris-Acetate gradient gel (NuPage; Invitrogen), transferred to PDVF or nitrocellulose membranes and mouse monoclonal anti-utrophin antibody MANCHO3 clone 8A4 (developed by Glenn E. Morris and obtained from the Developmental Studies Hybridoma Bank, Iowa) or a custom-made anti-UtrophinA rabbit polyclonal antibody (muscle tissue samples) generated and described previously by Chakkalakal et al., Nucleic Acids Res. 36, 826-838 (2008), which is incorporated herein by reference in its entirety.
(§6) TSA is a broad-spectrum HDAC inhibitor. […] To further validate in vitro the dose-dependent capacity of TSA to upregulate utrophin protein, C2C12 cells were treated for 24 hours with increasing concentrations of TSA (from 1 nM to 10 μM) (FIG. 3B). Consistent with the single-dose western blot validation experiments, utrophin protein levels were increased 4.3 times by 1 μM TSA. […] Some cytotoxicity was evident for TSA concentrations higher than 1 μM.

[4] = tested on: HDAC activity and proliferation of cancer cells; details: depending on the particular cell line; cited from earlier work
[5] = tested on: C2C12 cells; assay: Cytotoxicity in C2C12 cells treated with increasing TSA concentrations; assay type: cell-based; details: 24 hours
Method: as §6

[6] = tested on: mdx mouse model of DMD; assay: Preclinical TSA treatment in the mdx mouse model of DMD; assay type: in vivo
Method: Four-week-old mdx mice (C57BL/10ScSn-DMDmdx/J) were injected intraperitoneally on alternate days with Trichostatin A (Wako Chemicals USA-Inc, Richmond, Va.; dose 30 μg/kg), or an equal volume of sterile PBS for three months. All animal experiments were approved by the Institutional Animal Care and Use Committee at the University of Pennsylvania School of Medicine.
Functional in vivo and ex vivo analyses including rotarod, EDL strength, and sensitivity to damage induced by lengthening contractions (ECC), were performed as described by Krag, et al. Proc. Natl. Acad. Sci. U.S.A. 101, 13856-13860 (2004) and Bogdanovich, S. et al. Functional improvement of dystrophic muscle by myostatin blockade. Nature 420, 418-421 (2002), each of which is incorporated herein by reference in its entirety. Following the procedure, muscles were flash-frozen in liquid nitrogen-cooled isopentane and stored at −80° C.
as §5
To test the ability of TSA to increase utrophin in vivo and improve the dystrophic phenotype, 4 week-old mdx mice were treated with i.p. injections of 30 μg/kg body weight TSA, on alternating days for a total of 3 months.

[7] = ex vivo EDL, treated mdx, normalized by cross sectional area
[8] = treated mdx, TSA 30 μg/kg i.p. alternate days, 3 months

## CC(/C=C/C(=O)NO)=C\[C@@H](C)C(=O)c1ccc(N(C)C)cc1 [Trichostatin A]
[1]
  EC50: 1300 nM
[2]; 4-parameter logistic fit of Z-scores, 24 h, no unit in table (0.013 = 13 nM), read-out: EC50 screen
  EC50: 13 nM
[2]; read-out: EC50 score (1 to 4)
  EC50: < 50 nM
[2]; read-out: screening EC50
  EC50: 13 nM
[2]; difference between upper and lower boundaries of the fitted dose-response screening curve
  Upper-lower limits scoren: 34.53
[2]; fold difference between the EC50s of screening and counterscreening
  Fold diff: 119.82
[3]; 1 μM, normalized to tubulin, vs 0.1% DMSO control
  Utrophin protein levels, fold increase: 3.9 fold
[3]; Mus musculus, C2C12, 1 nM to 10 μM, read-out: EC50 for utrophin protein levels
  EC50: 88 nM
[3]; dose-response western blot, 1 μM TSA
  utrophin protein levels increased: 4.3 times
[4]
  IC50 in vitro: nM to μM range
[5]
  concentrations at which some cytotoxicity was evident: higher than 1 μM
[6]; EDL, 5 consecutive eccentric contractions, treated mdx
  ECC force drop 1-5: 25.81 ± 4.46%
[6]; EDL, series of 5 ECCs, FIG. 4G
  less force lost than control-treated muscles after the 5th ECC: 37%
[6]; TA muscle, qPCR, after TSA treatment
  Utrophin mRNA levels increased: 4.9 fold
[6]; TA muscle, western blot, after TSA treatment
  utrophin protein levels increased: 2 fold
[6]; TA muscles, FIG. 7
  myostatin or follistatin gene expression: did not cause changes
[6]; TSA-treated EDL muscles vs control
  lower number of centrally nucleated fibers: 30%
[6]; before and after normalization by crossectional area
  isometric twitch and tetanic strength of EDL muscles: significantly higher
[6]; compared to control-treated mice
  effect on body weight or the wet weight of skeletal muscles and organs: did not affect
[6]; ex vivo EDL, treated mdx
  EDL Tetanic force: 351.9 ± 16.61 mN
  EDL Twitch force: 64.19 ± 4.22 mN
[6]; [7]
  EDL Tetanic force (specific): 166.0 ± 9.09 mN/mm^2
  EDL Twitch force (specific): 29.98 ± 1.84 mN/mm^2
[6]; mouse, in vivo
  serum creatine kinase or hydroxyproline content in TA and diaphragm muscles: No significant changes
[6]; treated mdx
  Diaphragm Hydroxyproline Diaphragm: 3.33 ± 0.22 µg/mg
  Diaphragm Hydroxyproline TA: 0.90 ± 0.06 µg/mg
  EDL CNF (centrally nucleated fibers): 24.62 ± 2.30%
  EDL CSA (cross sectional area): 2.20 ± 0.13 mm^2
  EDL L0 (muscle length): 12.16 ± 0.20 mm
  Serum CK: 7450 ± 2381 U/L
[6]; [8]
  EDL muscle weight: 17.5 ± 0.4 mg
  Gastrocnemius muscle weight: 213.0 ± 11.0 mg
  Heart weight: 159.7 ± 5.2 mg
  Kidneys weight: 532.3 ± 25.8 mg
  Liver weight: 1179.0 ± 36.4 mg
  Quadriceps muscle weight: 234.6 ± 8.7 mg
  Soleus muscle weight: 12.8 ± 0.4 mg
  Tibialis Anterior (TA) muscle weight: 66.1 ± 1.5 mg
[6]; treated mdx, TSA 30 μg/kg i.p. alternate days, 3 months, mean ± SEM
  Body weight: 30.2 ± 0.5 g
[6]; treated vs control mdx
  rotarod test performance: performed significantly better than control mdx
